Data on 1 compound can be found in patent publication US5672582A, “Thrombin inhibitors” (Merck & Co., Inc., priority 1994, dated 1997).

One data set has as its target plasmin (Pl) (Homo sapiens, UniProt P00747). Put plainly: Chromogenic assay, plasmin. Format: biochemical. Particulars: Table 3.
Data set [1] addresses activated protein C (APC) (Homo sapiens, UniProt P04070). Put plainly: Chromogenic assay, activated protein C. Format: biochemical. The note with it: Table 3.
The nature of data set [2]: Oral bioavailability in rats. Format: in vivo. The note with it: rat, oral (gastric lavage), plasma. The protocol: (§1) Concentration was determined in animal plasma after oral (gastric lavage) administration.
Rats were anesthetized and instrumented with indwelling left jugular vein and left carotid artery catheters for test agent administration and for serial blood sampling, respectively. One day after instrumentation, blood samples were obtained before saline or inhibitor administration and at increasing time points after the oral administration.
(§2) Thrombin inhibitor concentrations in plasma were determined by the inactivation of a known amount of thrombin (where [thrombin]>>Ki of inhibitor) from an aliquot of acid-neutralized rat plasma. 0.25 ml of rat platelet poor plasma was mixed with 25 μl of 3M perchloric acid. The sample was centrifuged (14,000×g for 10 minutes) and 0.2 ml of the supernatant was neutralized with 0.43 ml of 1M TrisB 0.15M NaCl/0.1% PEG 8000 pH 7.8. 50-100 μl of acid-neutralized rat plasma was mixed with 50-100 μl of 0.03-3 μM thrombin. After equilibration, 5-10 μl of 5 mM Sar-Pro-Arg-pna (for <0.1 μM thrombin) or Spectrozyme PCa (for >0.1 μM thrombin) was added. The observed inhibited velocity was compared to inhibited velocities from a standard curve generated from rat plasma containing known amounts of inhibitor treated in an identical manner. The table below summarizes the results from these studies.

A short description of data set [3]: Oral bioavailability in dogs. Format: in vivo. The note with it: dog, oral (gastric lavage), plasma. The protocol: as §1
In dogs, the test agent was administered intravenously as a bolus or orally by gastric lavage. For intravenous studies, the sterile agent is dissolved in sterile 0.9% saline and administered via 19 g butterfly, usually via the saphenous vein. For oral studies, the sterile agent was dissolved in sterile water and administered via a feeding tube. Blood samples (5 cc each) were collected with a plastic syringe containing 3.8% sodium citrate via venipuncture (at sites other than that of drug administration) for drug plasma levels and thrombin clotting time assay. Dogs were allowed to recover 14 days before being used again in a similar protocol.
as §2, with “The observed inhibited velocity was compared to inhibited velocities from a standard curve generated from rat plasma containing known amounts of inhibitor treated in an identical manner. The table below summarizes the results from these studies.” left out

The next data set addresses T1, bovine trypsin (Bos taurus, UniProt P00760).
T1 sequence (P00760 24-246): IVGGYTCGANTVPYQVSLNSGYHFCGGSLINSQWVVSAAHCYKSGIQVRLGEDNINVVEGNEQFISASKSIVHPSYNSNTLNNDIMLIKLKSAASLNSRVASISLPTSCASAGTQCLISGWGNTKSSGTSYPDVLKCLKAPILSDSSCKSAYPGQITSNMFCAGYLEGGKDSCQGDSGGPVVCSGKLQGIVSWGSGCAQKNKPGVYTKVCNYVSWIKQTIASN
Description: Proteinase inhibition assay, bovine trypsin. The note with it: Table 1; 25° C., 0.05M TRIS pH 7.4, 0.15M NaCl, 0.1% PEG, 1 mM CaCl2; listed as drawing 22; read-out: Ki (μM) Trypsin. Format: biochemical. The protocol: Assays of human α-thrombin and bovine trypsin were performed at 25° C. in 0.05M TRIS buffer pH 7.4, 0.15M NaCl, 0.1% PEG. Trypsin assays also contained 1 mM CaCl2.
In assays wherein rates of hydrolysis of a p-nitroanilide (pna) substrate were determined, a Thermomax 96-well plate reader was used was used to measure (at 405 nm) the time dependent appearance of p-nitroaniline. sar-PR-pna was used to assay human α-thrombin (Km =125 μM) and bovine trypsin (Km =125 μM). "Sar" is the three letter abbreviation for the amino acid sarcosine (N-methylglycine). p-Nitroanilide substrate concentration was determined from measurements of absorbance at 342 nm using an extinction coefficient of 8270 cm^-1 M^-1.
Times required to achieve equilibration between enzyme and inhibitor were determined in control experiments. Initial velocities of product formation in the absence (Vo) or presence of inhibitor (Vi) were measured. Assuming competitive inhibition, and that unity is negligible compared Km /[S], [S]/e, and [I]/e (where [S], [I], and e respectively represent the total concentrations, of substrate, inhibitor and enzyme), the equilibrium constant (Ki) for dissociation of the inhibitor from the enzyme can be obtained from the dependence of Vo /Vi on [I] shown in equation 1.
Using the assays described above, the following additional embodiments of the invention were evaluated and shown to be selective for inhibiting thrombin. The constants were determined at pH 7.4 in buffer containing 0.05M Tris, 0.15M NaCl, 0.1% PEG-8000 at room temperature.

Data set [4] concerns FeCl3 induced arterial thrombosis in rats. Description: Rat ferric chloride assay. Format: in vivo. The protocol:
In the assay, male Sprague-Dawley rats (body weights 200-350 grams) were anesthetized with dial-urethane solution (0.1 ml/100 gm body weight i.p.), and a lateral tail vein was cannulated with a 23 gauge needle connected to a 12 inch length of PE50 robing. The robing was attached to a 3-way valve by a tubing adapter. Saline (control) or test compound, as appropriate, was administered via the tail vein catheter. A tracheostomy was performed with a 0.75 inch length of PE205 tubing. The right carotid artery was exposed and a 1.3 mm diameter Doppler flow probe was placed on the vessel. Body temperature was maintained at 37° C. using a heat lamp.
Rats (8-10/group) were randomized to continuous intravenous infusions of saline or test compound administered via the tail vein at a rate of 0.028 ml/min. Treatment infusions were initiated 60 min before the placement of a 3 mm square piece of Whatman No. 1 filter paper saturated with 35% FeCl3 onto the exposed carotid artery distal to the flow probe. […] Time to occlusion was defined as the time from application of FeCl3 to thrombotic occlusion of the vessel.

For data set [5], the target named is T2, plasma kallikrein (p-Kal) (Homo sapiens, UniProt P03952).
T2 construct: plasma kallikrein (p-Kal)
Put plainly: Chromogenic assay, plasma kallikrein. Format: biochemical. The note with it: Table 3.

For data set [6], the target named is tissue plasminogen activator (t-PA) (Homo sapiens, UniProt P00750). Description: Chromogenic assay, tissue plasminogen activator. Format: biochemical. The note with it: Table 3, read-out: Ki (nM) tPA.
The nature of data set [7]: Oral bioavailability in rhesus monkeys. The note with it: oral (nasogastric tube), plasma. Format: in vivo, rhesus monkey. The protocol:
as §1
In monkeys, the test agent was administered intravenously as a bolus or orally by pediatric nasogastric tube. For intravenous studies, the sterile agent was dissolved in sterile 0.9% saline and administered via 21 g butterfly, usually via the brachial vein. For oral studies, the sterile agent was dissolved in sterile water and administered via a nasogastric tube. Blood samples (4 cc each) were collected with a plastic syringe containing 3.8% sodium citrate via venipuncture (at sites other than that of drug administration) for drug plasma levels and thrombin clotting time assay. The monkeys were given water ad lib. Monkeys were allowed to recover 14 days before being used again in a similar protocol.
Thrombin inhibitor concentrations in plasma were determined by the inactivation of a known amount of thrombin (where [thrombin]>>Ki of inhibitor) from an aliquot of acid-neutralized rat plasma. 0.25 ml of rat platelet poor plasma was mixed with 25 μl of 3M perchloric acid. The sample was centrifuged (14,000×g for 10 minutes) and 0.2 ml of the supernatant was neutralized with 0.43 ml of 1M TrisB 0.15M NaCl/0.1% PEG 8000 pH 7.8. 50-100 μl of acid-neutralized rat plasma was mixed with 50-100 μl of 0.03-3 μM thrombin. […]

Another data set concerns the target T3, Factor Xa (fXa) (Homo sapiens, UniProt P00742).
T3 construct: Factor Xa (fXa), plasma kallikrein (p-Kal), plasmin (Pl)
Description: Chromogenic assay, Factor Xa. Format: biochemical. Particulars: Table 3.

T2 sequence (P03952 391-638 limits assumed, species assumed): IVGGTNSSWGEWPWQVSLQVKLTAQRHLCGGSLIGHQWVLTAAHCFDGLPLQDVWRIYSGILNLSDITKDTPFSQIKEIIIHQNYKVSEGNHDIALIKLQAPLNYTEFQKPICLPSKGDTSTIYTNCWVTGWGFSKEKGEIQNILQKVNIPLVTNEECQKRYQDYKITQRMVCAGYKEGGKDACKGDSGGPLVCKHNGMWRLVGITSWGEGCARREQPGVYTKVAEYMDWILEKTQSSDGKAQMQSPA
T2 sequence (P03952 20-390 limits assumed, species assumed): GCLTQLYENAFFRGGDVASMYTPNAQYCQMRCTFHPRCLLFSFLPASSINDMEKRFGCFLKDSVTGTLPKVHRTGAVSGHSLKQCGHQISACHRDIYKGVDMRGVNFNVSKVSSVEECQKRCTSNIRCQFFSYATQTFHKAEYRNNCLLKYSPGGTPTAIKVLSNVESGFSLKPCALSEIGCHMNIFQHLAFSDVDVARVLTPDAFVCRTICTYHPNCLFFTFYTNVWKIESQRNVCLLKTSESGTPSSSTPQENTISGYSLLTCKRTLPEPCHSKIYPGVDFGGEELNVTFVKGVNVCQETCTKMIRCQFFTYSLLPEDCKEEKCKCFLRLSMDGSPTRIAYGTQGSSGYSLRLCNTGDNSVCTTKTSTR
T3 sequence (P00742 235-488 limits assumed): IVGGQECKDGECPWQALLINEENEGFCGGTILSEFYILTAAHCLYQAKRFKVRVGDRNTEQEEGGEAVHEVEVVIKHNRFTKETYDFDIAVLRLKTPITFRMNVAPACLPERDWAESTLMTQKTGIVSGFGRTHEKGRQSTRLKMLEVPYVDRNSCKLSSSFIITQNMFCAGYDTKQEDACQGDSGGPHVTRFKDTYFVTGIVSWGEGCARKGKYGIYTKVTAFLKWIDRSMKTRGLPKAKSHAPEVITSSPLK
T3 sequence (P00742 41-179 limits assumed): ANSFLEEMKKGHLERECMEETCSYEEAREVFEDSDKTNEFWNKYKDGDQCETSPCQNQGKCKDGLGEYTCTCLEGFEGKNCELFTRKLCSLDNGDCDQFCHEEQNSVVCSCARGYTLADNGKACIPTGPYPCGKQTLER
activated protein C (APC), sequence (P04070 212-461 limits assumed): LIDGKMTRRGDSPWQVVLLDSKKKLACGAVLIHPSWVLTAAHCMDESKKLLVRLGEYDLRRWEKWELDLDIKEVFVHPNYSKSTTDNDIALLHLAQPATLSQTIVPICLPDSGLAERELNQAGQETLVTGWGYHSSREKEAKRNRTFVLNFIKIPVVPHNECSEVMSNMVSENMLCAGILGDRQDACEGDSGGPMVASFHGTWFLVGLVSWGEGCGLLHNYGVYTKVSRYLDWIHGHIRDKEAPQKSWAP
activated protein C (APC), sequence (P04070 43-197 limits assumed): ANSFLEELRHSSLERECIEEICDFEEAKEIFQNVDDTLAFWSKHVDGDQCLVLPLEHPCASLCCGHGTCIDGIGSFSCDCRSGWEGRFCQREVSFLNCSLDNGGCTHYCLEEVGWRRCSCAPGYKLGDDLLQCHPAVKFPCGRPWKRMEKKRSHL
plasmin (Pl), sequence (P00747 581-810 limits assumed, species assumed): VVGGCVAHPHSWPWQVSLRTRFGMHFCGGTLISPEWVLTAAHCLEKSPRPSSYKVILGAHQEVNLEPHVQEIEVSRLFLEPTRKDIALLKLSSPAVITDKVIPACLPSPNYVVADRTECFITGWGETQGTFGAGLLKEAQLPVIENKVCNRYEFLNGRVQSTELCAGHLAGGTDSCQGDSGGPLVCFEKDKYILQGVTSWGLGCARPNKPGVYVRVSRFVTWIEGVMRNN
plasmin (Pl), sequence (P00747 97-580 limits assumed, species assumed): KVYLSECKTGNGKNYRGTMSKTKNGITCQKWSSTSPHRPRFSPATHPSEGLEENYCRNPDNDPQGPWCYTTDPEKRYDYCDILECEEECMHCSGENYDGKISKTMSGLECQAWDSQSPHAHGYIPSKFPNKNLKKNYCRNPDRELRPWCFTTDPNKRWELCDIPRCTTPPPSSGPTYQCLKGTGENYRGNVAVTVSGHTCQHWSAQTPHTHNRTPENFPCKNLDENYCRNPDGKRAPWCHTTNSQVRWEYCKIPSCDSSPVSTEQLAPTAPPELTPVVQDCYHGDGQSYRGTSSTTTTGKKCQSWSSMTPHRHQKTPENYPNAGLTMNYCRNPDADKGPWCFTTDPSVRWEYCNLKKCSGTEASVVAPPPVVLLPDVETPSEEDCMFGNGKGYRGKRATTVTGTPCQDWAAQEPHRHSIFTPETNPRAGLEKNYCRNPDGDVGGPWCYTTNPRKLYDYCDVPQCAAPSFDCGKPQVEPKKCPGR
tissue plasminogen activator (t-PA), sequence (P00750 36-562, species assumed): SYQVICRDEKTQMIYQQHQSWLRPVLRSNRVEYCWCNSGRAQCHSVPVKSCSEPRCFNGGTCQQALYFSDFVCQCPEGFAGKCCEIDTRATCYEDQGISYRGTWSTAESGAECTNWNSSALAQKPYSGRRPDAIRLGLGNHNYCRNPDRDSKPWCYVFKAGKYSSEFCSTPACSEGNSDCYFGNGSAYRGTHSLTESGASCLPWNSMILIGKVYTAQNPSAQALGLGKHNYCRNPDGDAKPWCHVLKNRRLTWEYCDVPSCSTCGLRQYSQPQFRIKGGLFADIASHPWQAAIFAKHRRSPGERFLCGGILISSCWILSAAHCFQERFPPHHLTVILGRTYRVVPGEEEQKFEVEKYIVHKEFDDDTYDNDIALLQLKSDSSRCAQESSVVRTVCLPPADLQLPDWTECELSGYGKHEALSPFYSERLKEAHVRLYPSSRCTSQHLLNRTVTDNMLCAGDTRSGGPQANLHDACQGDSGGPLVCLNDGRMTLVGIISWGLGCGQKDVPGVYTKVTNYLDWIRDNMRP

In general, Ki refers to a measure of affinity in units of concentration, obtained from inhibition or displacement. For `CNC(=O)C(=O)C(NC(=O)C1CCCN1C(=O)C(Cc1ccccc1)NC)C1CCC(N)CC1` [4-4, H-NMe-D.-Phe-Pro-t-L-Acg.PSI.[COCO]--NHMe], the Ki on plasmin (Pl) is more than 10000 nM; in data set [1], more than 10000 nM; at bovine trypsin, 1.15 µM; in data set [5], more than 10000 nM; in [6] it was more than 10000 nM; on Factor Xa (fXa), more than 10000 nM. The “% bioavailable” value in data set [2] worked out at 5%; in data set [3], 8%; in data set [7], 5%. Also, the values for the Incidence of occlusion in [4] (1 μg/kg/min i.v. infusion), in [4] (5 μg/kg/min i.v. infusion) and in data set [4] (10 μg/kg/min i.v. infusion) were 3/4, 2/4 and 0/4, respectively. Also, the “Minutes to occulsion of those occluding” value was 21 min in data set [4] (1 μg/kg/min i.v. infusion) and 18 to 20 min in data set [4] (5 μg/kg/min i.v. infusion).
